Tests used:
[1] = test system: bleomycin-induced lung injury and pulmonary fibrosis; assay: Inhibition of bleomycin-induced lung injury and pulmonary fibrosis in vivo (HE and Masson staining of lung tissue); set-up: species or system C57BL/6 mice; conditions: 10 mg/kg obacunone intraperitoneally 48 hours before each bleomycin injection, lung tissue 7 days after last bleomycin, vs bleomycin group
Method: (§1) Eighteen C57BL/6 mice, aged 8 weeks, each weighing 18 to 22 g, were provided by the Laboratory Animal Center of Guangzhou University of Chinese Medicine (Certificate No. 44007200023897).
Bleomycin was intraperitoneally injected into 8-week old B6 mice at a dose of 2 mg/mouse, once per week, three times in total. 48 hours before each injection with bleomycin, corn oil or 10 mg/kg obacunone was intraperitoneally injected into B6 mice in advance. 7 days after the last injection with bleomycin, lung tissue was isolated, fixed, sectioned, HE-stained (see Experiment 8 for details), and Masson-stained.

[2] = test system: cytokines IL-6, TGF-β, IL-17, IFN-γ and MCP-1; assay: Bleomycin-induced expression of inflammatory factors in lung tissue (qPCR); type: in vivo, C57BL/6 mice; conditions: BLM+obacunone injection group vs BLM injection group, FIG. 2
Method: as §1
The mRNA levels of cytokines IL-6, TGF-β, IL-17, IFN-γ and MCP-1 were analyzed by qPCR. *P<0.05, **P<0.01 indicated significant differences between the BLM injection group and the normal group; ^# P<0.05, ^## P<0.01 indicated significant differences between the BLM injection group and the BLM+obacunone injection group.

[3] = test system: α-smooth muscle actin (α-SMA); assay: α-SMA expression in bleomycin-induced pulmonary fibrosis (immunohistochemistry staining); type: in vivo, C57BL/6 mice; conditions: after administration of obacunone, compared to the bleomycin group, FIG. 3
From the text: as §1
In pulmonary fibrosis TGF-β induced lung interstitial fibroblasts to transform into myofibroblasts, of which the marker is the expression of α-smooth muscle actin (α-SMA). Therefore, in this experiment the effect of obacunone on the expression of α-SMA in lung myofibroblasts was investigated to provide experimental support for the use of obacunone in treatment and prevention of pulmonary fibrosis.
Steps of immunohistochemistry staining are as follows:
1) placing and baking paraffin wax sections in an electrothermal thermostat oven at 60° C. for 30 min;
2) dewaxing the sections with xylene (8 min for each of I and II), hydrating them with decreasing concentrations of ethanol (8 min for each concentration), and washing with water;
3) performing antigen retrieval, and washing the sections with PBS (3 times×3 min);
4) adding Solution A (S-P kit) dropwise, blocking at room temperature for 10 min, and washing the sections with PBS (3 times×3 min);
5) adding Solution B (S-P kit) dropwise, blocking at room temperature for 10 min, and blotting extra liquid;
6) adding a primary antibody dropwise, placing the sections in a wet box overnight at 4° C., and washing the sections with PBS (3 times×3 min); […]

liver and kidney of mice = assay: Damage caused by obacunone to liver and kidney of mice (HE staining); type: in vivo, C57BL/6 mice; conditions: 10 mg/kg obacunone, twice a week, 6 times in total; tissues 7 days after last injection; FIG. 4
Method: as §1
8-week aged B6 mice were injected with corn oil or 10 mg/kg obacunone, twice a week, 6 times in total. 7 days after the last injection, liver and kidney tissues were isolated, fixed, sectioned, and HE-stained (FIG. 4), as described below.
HE (Hematoxylin-eosin) staining: the paraffin wax samples were continuously sectioned with the semi-automated rotary microtome, with a thickness of 3.5 μm; for staining, the sections were baked and dried for 20 min, rinsed with xylene (2 times×10 min), with anhydrous ethanol (2 times×2 min), with 95% ethanol for 1 min, with 80% ethanol for 1 min, with 70% ethanol for 1 min, washed with water for 1 min, then stained with hematoxylin for 8 min, […], washed with water (2 times×1 min), with 0.5% HCl-ethanol for 10 sec, washed with water for 10 min, stained with eosin for 2 min, washed with water for 1 min, with 80% ethanol for 5 sec, with 85% ethanol for 5 sec, with 90% ethanol for 5 sec, with 95% ethanol for 1 min, with anhydrous ethanol (2 times×2 min), with anhydrous ethanol for 3 min, and with xylene (2 times×2 min), and then the staining was completed and the sections were directly mounted with neutral gum.

[4] = test system: human colon cancer cells (SW480); conditions: cited from earlier work
[5] = test system: human pancreatic cancer cells (Panc-28); conditions: by activating p53; cited from earlier work
arginase = conditions: reciprocally increasing NO production; cited from earlier work

CC1(C)OC(=O)C=C[C@]2(C)[C@H]3CC[C@@]4(C)[C@H](c5ccoc5)OC(=O)[C@H]5O[C@]54[C@]3(C)C(=O)C[C@@H]12 [Obacunone]
HE staining of lung tissue: pathological changes (alveolar shrinkage, inflammatory cell infiltration, wall thickening, bullae, interstitial proliferation) ([1]; FIG. 1A): significant improvement of the above pathological changes | Masson staining of lung tissue: precipitation of stroma (collagen, fibronectin) ([1]; FIG. 1B): significant improvement of the above pathological changes | mRNA levels of cytokines IL-6, TGF-β, IL-17, IFN-γ and MCP-1 in lung tissue [2]: repaired these bleomycin-induced changes to a great extent | expression of α-SMA in lung tissue [3]: significantly reduced | effect on liver and kidney (HE-stained sections) (liver and kidney of mice): did not apparently affect the liver and kidney of mice | apoptosis of SW480 cells ([4]; by activating cytochrome C): induced cell apoptosis | growth of tumor cells (SW480) ([4]; by activating p21 to arrest the cell cycle at phases G2/M and G1): suppressed growth of tumor cells | apoptosis of Panc-28 tumor cells [5]: induced apoptosis of tumor cells | activity of arginase (arginase): inhibiting activity of arginase
